Data from US6124324A, “Thiophene-ethyl thiourea compounds and use” (Hughes Institute, priority 1999, dated 2000).
Where two headings read alike, the source gives them in different places.

Legend:
[1] = molecular target: T1, purified recombinant HIV RT (Human immunodeficiency virus type 1 group M subtype B, UniProt P04585); assay: Purified RT assay, cell-free Quan-T-RT system (scintillation proximity); format: biochemical
T1 construct: purified recombinant HIV RT; purchased Amersham, Arlington Heights, Ill; (Quan-T-RT system)
Experimental: The synthesized compounds were tested for RT inhibitory activity (IC50 [rRT]) against purified recombinant HIV RT using the cell-free Quan-T-RT system (Amersham, Arlington Heights, Ill.), which utilizes the scintillation proximity assay principle as decribed in Bosworth, et al., 1989, Nature 341:167-168. In the assay, a DNA/RNA template is bound to SPA beads via a biotin/strepavidin linkage. The primer DNA is a 16-mer oligo(T) which has been annealed to a poly(A) template. The primer/template is bound to a strepavidin-coated SPA bead.
^3 H-TTP is incorporated into the primer by reverse transcription. In brief, ^3 H-TTP, at a final concentration of 0.5 μCi/sample, was diluted in RT assay buffer (49.5 mM Tris-Cl, pH 8.0, 80 mM KCl, 10 Mm MgCl2, 10 mM DTT, 2.5 mM EGTA, 0.05% Nonidet-P-40), and added to annealed DNA/RNA bound to SPA beads. The compound being tested was added to the reaction mixture at 0.001 μM-100 μM concentrations. […] The reaction was stopped by addition of 0.2 ml of 120 mM EDTA. The samples were counted in an open window using a Beckman LS 7600 instrument and IC50 values were calculated by comparing the measurements to untreated samples.

[2] = tested on: HIV-1 strain A17 variant (Y181C, K103N); assay: microbe, parasite or virus in culture; format: cell-based
Experimental: (§1) In addition, the anti-HIV activity of the compounds was measured by determining their ability to inhibit the replication of the HIV-1 strains HTLVIIIB, RT-MDR, A17, and A17 variant in peripheral blood mononuclear cells (PBMC) from healthy volunteer donors, using the method described in Uckun et.al., 1998, Antimicrobial Agents and Chemotherapy 42:383.
(§2) Normal human peripheral blood mononuclear cells (PBMNC) from HIV-negative donors were cultured 72 hours in RPMI 1640 supplemented with 20% (v/v) heat-inactivated fetal bovine serum (FBS), 3% interleukin-2,2 mM L-glutairine, 25 mM HEPES, 2 μL, NAHCO, […] gentamicin, and 4 Ag/mL phytohemagglutinin prior to exposure to HIV-1 or other HIV strain. The cells were then infected with virus at a multiplicity of infection (MOI) of 0.1 during a one-hour adsorption period at 37° C. in a humidified 5% CO2 atmosphere. Subsequently, cells were cultured in 96-well microplates (100 μL/well; 2×10^6 cells/mL, triplicate wells) in the presence of various inhibitor concentrations. Aliquots of culture supernatants were removed from the wells on the 7 th day after infection for p24 antigen p24 enzyme immunoassays (EIA), as previously described in Erice et al., 1993, Antimicrob. Ag. Chemotherapy 37:385-838. The applied p24 EIA was the unmodified kinetic assay commercially available from Coulter Corporation/Immunotech, Inc. (Westbrook, Me.).
(§3) Percent inhibition of viral replication was calculated by comparing the p24 values from the test substance-treated infected cells with p24 values from untreated infected cells (i.e, virus controls).
(§4) RT-MDR was obtained through the AIDS Research and Reference Reagent Program, from Dr. Bendan Larder, and is described in Larder et al., 1993, Nature, 365, 451-453.

[3] = tested on: HIV-1 strain RT-MDR (V106A); assay: microbe, parasite or virus in culture; format: cell-based; details: for IC50: read-out: IC50 RT-MDR (V106A); for effectiveness against RT-MDR versus HTLVIIIB: more effective against RT-MDR than against HTLVIIIB
Experimental: as §1, §2, §3, §4

[4] = tested on: HIV-1 strain A17 (Y181C); assay: microbe, parasite or virus in culture; format: cell-based; details: for IC50: read-out: IC50 A17 (Y181C)
Experimental: as §1, §2
(§5) Percent inhibition of viral replication was calculated by comparing the p24 values from the test substance-treated infected cells with p24 values from untreated infected cells (i.e, virus controls). […]

[5] = Microculture Tetrazolium Assay (MTA), cytotoxicity; format: cell-based
Experimental: A Microculture Tetrazolium Assay (MTA), using 2,3-bis(2-methoxy-4-nitro-5-sulfophenyl)-5-[(phenylamino)-carbonyl]-2H-tetrazolium hydroxide (XTT), was performed to evaluate the cytotoxicity of the compounds, using the methods described, for example, in Uckun et.al., 1998, Antimicrobial Agents and Chemotherapy 42:383; and Mao et.al., 1998, Bioorg. Med. Chem. Lett. 8:2213.

[6] = tested on: HIV-1 strain HTLVIIIB; assay: Inhibition of replication of HIV-1 strain HTLVIIIB in PBMC (p24 antigen EIA); format: cell-based
Experimental: as §1, §2, §5

[7] = tested on: HIV-1 strain HTLVIIIB; details: earlier publication (Mao et al.), cited from earlier work; for antiviral potency relative to trovirdine: HTLVIIIB; for abrogated the replication of HTLVIIIB: human PBMC
[8] = tested on: NNI-resistant HIV-1 strains; details: earlier publication (Mao et al., 1999); cited from earlier work
[9] = IC50 rRT, Table 2; recombinant HIV RT
[10] = inhibition of p24 antigen production in PBMC, read-out: IC50 A17 Varient (Y181C, K103N)
[11] = inhibition of p24 antigen production in PBMC
[12] = XTT cytotoxicity, read-out: CC50 MTA
[13] = Human immunodeficiency virus 1, IIIB, inhibition of p24 antigen production in PBMC, read-out: IC50 HTLV IIIB
[14] = Human immunodeficiency virus 1, PBMC, read-out: IC50 A17 Varient (Y181C, K103N)
[15] = Human immunodeficiency virus 1, PBMC
[16] = IC50 rRT, Table 1 and text; recombinant HIV RT
[17] = Table 1 and text; recombinant HIV RT; read-out: IC90 rRT
[18] = Human immunodeficiency virus 1, IIIB, PBMC, read-out: IC50 HTLV IIIB

With `Cc1cn([C@H]2C[C@H](N=[N+]=[N-])[C@@H](CO)O2)c(=O)[nH]c1=O` [AZT, reference compound] the IC50 [1, 9] was greater than 100000 nM, the IC50 [2, 10] was 0.004 µM and the IC50 [3, 11] was 200 nM. For the same compound, the IC50 [4, 11] was 6 nM and the CC50 [5, 12] was greater than 100 µM.

Work on `CC(C)Nc1cccnc1N1CCN(C(=O)c2cc3cc(NS(C)(=O)=O)ccc3[nH]2)CC1` [Delavirdine, reference compound] yielded an IC50 [6, 13] of 9 nM, an IC50 [2, 14] greater than 100 µM and an IC50 [3, 15] of 400 nM. For the same compound, the IC50 [4, 15] was 50000 nM.

Work on `S=C(NCCN1CCCCC1)Nc1ccc(Br)cn1` [HI-172, N-[2-(1-piperidinoethyl)]-N'-[2-(5-bromopyridyl)]thiourea] yielded an IC50 [1, 9] of 600 nM, an IC50 [6, 13] of less than 1 nM and an IC50 [2, 14] greater than 100 µM. For the same compound, the IC50 [3, 15] was greater than 100000 nM, the IC50 [4, 15] was greater than 100000 nM and the CC50 [5, 12] was greater than 100 µM. For the same compound, the “antiviral potency relative to trovirdine” value [7] was “more potent than trovirdine”, the “abrogated the replication of HTLVIIIB” value [7] was “nanomolar concentrations” and the “inhibition of replication of NNI-resistant HIV-1 strains” value [8] was “neither compound inhibited the replication”.

`CN1CCCC1CCNC(=S)Nc1ccc(Br)cn1` (stereo not shown) [HI-206, N-[2-(1-methyl-2-pyrrolidinylethyl)]-N'-[2-(5 bromopyridyl)]thiourea] gave an IC50 [1, 16] greater than 100000 nM and an IC90 [1, 17] greater than 100 µM.

With `S=C(NCCN1CCCC1)Nc1ccc(Br)cn1` [HI-230, N-[2-(1-pyrolidylethyl)]-N'-[2-(5-bromopyridyl)]thiourea] the IC50 [1, 16] was 4900 nM and the IC90 [1, 17] was greater than 100 µM.

`Fc1ccccc1CCNC(=S)Nc1ccc(Br)cn1` [HI-240, N-[2-(2-fluorophenethyl)]-N'-[2-(5-bromopyridyl)]thiourea] showed an IC50 [6, 13] of less than 1 nM, an IC50 [2, 14] of 41 µM and an IC50 [3, 15] of 5 nM. For the same compound, the IC50 [4, 15] was 200 nM and the CC50 [5, 12] was greater than 100 µM.

In the case of `S=C(NCc1ccc2c(c1)OCO2)Nc1ccc(Br)cn1` [HI-257, N-[2-(1-piperonyl)]-N'-[2-(5-bromopyridyl)]thiourea], the IC50 [1, 16] is reported as 700 nM and the IC90 [1, 17] is reported as greater than 100 µM.

In the case of `S=C(NCCN1CCNCC1)Nc1ccc(Br)cn1` [HI-258, N-[2-(1-piperizinylethyl)]-N'-[2-(5-bromopyridyl)]thiourea], the “antiviral potency relative to trovirdine” value [7] is given as “more potent than trovirdine”, the “abrogated the replication of HTLVIIIB” value [7] is given as “nanomolar concentrations” and the “inhibition of replication of NNI-resistant HIV-1 strains” value [8] is given as “neither compound inhibited the replication”.

For `S=C(NCCN1CCOCC1)Nc1ccc(Br)cn1` [HI-276, N-[2-(5-Bromopyridinyl)]-N'-[2-(4-Morpholinoethyl)]thiourea], the IC50 [1, 16] was greater than 100000 nM and the IC90 [1, 17] was greater than 100 µM.

`S=C(NCCc1cnc[nH]1)Nc1ccc(Br)cn1` [HI-436, N-[2-(5-Bromopyridinyl)]-N'-[2-(2-Imidazolylethyl)]thiourea] gave an IC50 [1, 16] greater than 100000 nM and an IC90 [1, 17] greater than 100 µM.

For `S=C(NCCc1c[nH]c2ccccc12)Nc1ccc(Br)cn1` [HI-442, N-[2-(5-Bromopyridinyl)]-N'-[2-(3-Indolylethyl)]thiourea], the IC50 [1, 16] was 900 nM and the IC90 [1, 17] was greater than 100 µM.

In the case of `S=C(NCCc1cccs1)Nc1ccc(Br)cn1` [HI-443, N-[2-(5-Bromopyridinyl)]-N'-[2-(2-Thiophenylethyl)]thiourea], the IC50 [1, 16] is reported as 800 nM, the IC50 [1, 9] is reported as 5300 nM and the IC90 [1, 17] is reported as 15 µM. For the same compound, the IC90 ([1]; read-out: IC90 rRT; Table 1 and text; recombinant HIV RT) was 12 µM, the “inhibited recombinant RT in vitro” value ([1]; recombinant RT in vitro) was “more than 90%” and the IC50 [6, 18] was 30 nM. The IC50 ([6]; Human immunodeficiency virus 1, PBMC, read-out: average IC50, HTLVIIIB replication) was 30 nM, the “IC50 HTLVIIIB relative to HI-172” value ([6]; times higher than IC50 of HI-172) was 30 times and the “IC50 HTLVIIIB relative to trovirdine” value ([6]; times higher than IC50 of trovirdine) was 5 times. The IC50 ([2]; Human immunodeficiency virus 1, PBMC, read-out: IC50, A17 variant replication) was 3.26 µM, the IC50 [2, 14] was 3.26 µM and the “potency against A17 variant versus HTLVIIIB” value ([2]; fold lower potency than HTLVIIIB, 10080 min) was 100 fold. The IC50 [3, 15] was 4 nM, the “effectiveness against RT-MDR versus HTLVIIIB” value [3] was “ten” and the “effectiveness against RT-MDR versus HTLVIIIB” value ([3]; 10080 min) was 10 times. For the same compound, the “potency against RT-MDR relative to AZT” value ([3]; more potent than AZT) was 50 times, the “potency against RT-MDR relative to HI-172” value ([3]; more potent than HI-172) was 25,000 times and the “potency against RT-MDR relative to HI-240” value ([3]; more potent than HI-240) was 1.25 times. For the same compound, the “potency against RT-MDR relative to MKC-442” value ([3]; more potent than MKC-442) was 75 times, the “potency against RT-MDR relative to delavirdine” value ([3]; more potent than delavirdine) was 100 times and the “potency against RT-MDR relative to nevirapine” value ([3]; more potent than nevirapine) was 1250 times. For the same compound, the “potency against RT-MDR relative to trovirdine” value ([3]; more potent than trovirdine) was 5 times, the IC50 [4, 15] was 48 nM and the “potency against A17 relative to HI-172” value ([4]; more potent than HI-172) was 2083 times. The “potency against A17 relative to HI-240” value ([4]; more potent than HI-240) was 4.2 times, the “potency against A17 relative to delavirdine” value ([4]; more potent than delavirdine) was 1042 times and the “potency against A17 relative to nevirapine” value ([4]; more potent than nevirapine) was 2083 times. For the same compound, the “potency against A17 relative to trovirdine” value ([4]; more potent than trovirdine) was 10 times and the CC50 [5, 12] was greater than 100 µM.

For `S=C(NCc1ccco1)Nc1ccc(Br)cn1` [HI-503, N-[2-(5-Bromopyridinyl)]-N'-[2-(2-Furylmethyl)]thiourea], the IC50 [1, 16] was 1200 nM and the IC90 [1, 17] was greater than 100 µM.

With `CCOCn1c(Cc2ccccc2)c(C(C)C)c(=O)[nH]c1=O` [MKC-442, reference compound] the IC50 [3, 15] was 300 nM and the CC50 [5] was greater than 100 µM.

`Cc1ccnc2c1NC(=O)c1cccnc1N2C1CC1` [Nevirapine, reference compound] showed an IC50 [6, 13] of 34 nM, an IC50 [2, 10] greater than 100 µM and an IC50 [3, 11] of 5000 nM. It also gave an IC50 [4, 11] greater than 100000 nM.

With `S=C(NCCc1ccccn1)Nc1ccc(Br)cn1` [Trovirdine, reference compound] the IC90 [1, 17] was 12 µM, the “inhibited recombinant RT in vitro” value ([1]; recombinant RT in vitro) was “more than 90%” and the IC50 [6, 18] was 7 nM. For the same compound, the IC50 [2, 14] was greater than 100 µM, the IC50 [3, 15] was 20 nM and the IC50 [4, 15] was 500 nM. For the same compound, the CC50 [5] was greater than 100 µM.
